Assay results reported in PubChem BioAssay AID1918938 (Molecular Pharmacology Branch, DTP, NCI, 2023).

Tested on: 556581-035-R-J1-PDC complex spheroid viability
Assay: Anticancer human tumor 556581-035-R-J1-PDC patient-derived ovarian carcinoma cell line growth inhibition
Conditions: for IC50: curve of first compound; for viability, T/C: stronger effect = lower value
Description: Multicellular complex tumor spheroid response to LSD1 Inhibitor Iadademstat in combination with a variety of drugs and investigational agents in selected tumor cell lines
The current study was undertaken to assess response to LSD1 inhibitors in combination with standard-of-care drugs and investigational agents in solid tumor complex spheroid models as well as in the K-562 leukemia. Complex spheroids include a stromal component modeled by human endothelial cells (HUVEC) and fibroblasts modeled by human mesenchymal stem cells (MSCs). The concentration ranges selected for each drug and investigational agent were based upon clinically achievable concentrations if the clinical Cmax of the agent was known.
Compounds. The drugs and investigational agents used in this study are listed on Table 1. All of the agents used, including staurosporine (NSC755774) and gemcitabine (NSC613327), were obtained from the Developmental Therapeutics Program, NCI. FDA-approved anticancer drugs are available from the NCI at http://dtp.nci.nih.gov/branches/dscb/oncology_drugset_explanation.html. Drugs and investigational agents were >95% pure by proton nuclear magnetic resonance (NMR) and liquid chromatography/mass spectrometry (LC/MS). Stock solutions were prepared at 400x in DMSO, stored at -70 degrees C, and diluted in fresh medium prior to their use. The final concentration of DMSO in cell culture wells never exceeded 0.25% (v/v). The FDA-approved anticancer drug set is available from the Developmental Therapeutics Program at https://dtp.cancer.gov/organization/dscb/obtaining/available_plates.htm. All drugs and investigational agents were tested over a range starting from a high concentration at or near the clinical Cmax and decreasing in half-log increments. If the clinical Cmax for an agent had not been determined, the highest concentration tested was 10 microM.
Cell Lines. The patient-derived cancer cell (PDC) lines: 292921-168-R-J2-PDC, K24384-001-R-PDC, and 521955-158-R2-J5-PDC pancreatic carcinomas, 556581-035-R-J1 ovarian carcinoma, 324938-238-R-J1-PDC, 855422-203-R-J1-PDC and 883617-216-R-J1-PDC urothelial bladder carcinomas, 743489-274-T-PDC renal cell carcinoma, 138582-R-J1 Merkel cell tumor, K60290-347-R-J1 and K57222-313-R-J1-PDC glioblastomas, 653999-131-R-J2-PDC, LG0703-F948-PDC, and 349418-098-R-PDC non-small cell lung carcinomas, 885512-296-R-J2-PDC, 171881-019-R-J1-PDC breast carcinomas and 186277-243-T-J2-PDC and 233499-124-R-J2-PDC colon carcinomas were obtained from the NCI Patient-Derived Models Repository (PDMR, https://pdmr.cancer.gov). The established cell lines NCI/ADR-RES (RRID:CVCL_14520 and OVCAR-5 (RRID:CVCL_1628) ovarian carcinomas, 786-O (RRID:CVCL_1051) and A498 (RRID:CVCL_A498) renal cell carcinoma, NCI-H211 (ATCC, cat. CRL-5824; RRID:CVCL_1529), NCI-H196 (ATCC, cat. CRL-5823, RRID:CVCL_1509), SW 1271 (ATCC, cat. CRL-2177, RRID:CVCL_1716) and NCI-H1876 (ATCC, cat. CRL-5902, RRID:CVCL_1503) small cell lung carcinomas, MDA-MB-231 (RRID:CVCL_0062) and MDA-MB-468 (RRID:CVCL_0419)breast carcinomas (10-12). Pooled donor human umbilical vein endothelial cells (HUVEC, Lonza, cat. CC-2519) and human mesenchymal stem cells (hMSC, Lonza, cat. PT-2501) were purchased from Lonza (Walkersville, MD).
Cell Culture. All cells were maintained in an incubator at 37 degrees C and 5% CO2 with 95% humidity. The PDC lines were cultured according to standard operating procedures established by the NCI PDMR (https://pdmr.cancer.gov). Briefly all PDCs were thawed and cultured in Matrigel-coated flasks prepared with a working solution of 1X Ham's F-12 nutrient mix, without supplementation (Invitrogen, Waltham, MA, cat. 11765054), 100 U/mL penicillin-streptomycin (Invitrogen, cat. 15140122), and 2.5% Matrigel (Corning Inc., Corning, NY, cat. 354248) for the first three passages. […]

[1] = second compound 0.1 µM, first compound 0.00316 µM
[2] = second compound 0.1 µM, first compound 0.01 µM
[3] = second compound 0.1 µM, first compound 0.0316 µM
[4] = second compound 0.1 µM, first compound 0.1 µM
[5] = second compound 0.316 µM, first compound 0.00316 µM
[6] = second compound 0.316 µM, first compound 0.01 µM
[7] = second compound 0.316 µM, first compound 0.0316 µM
[8] = second compound 0.316 µM, first compound 0.1 µM
[9] = second compound 1 µM, first compound 0.00316 µM
[10] = second compound 1 µM, first compound 0.01 µM
[11] = second compound 1 µM, first compound 0.0316 µM
[12] = second compound 1 µM, first compound 0.1 µM
[13] = second compound 3.16 µM, first compound 0.00316 µM
[14] = second compound 3.16 µM, first compound 0.01 µM
[15] = second compound 3.16 µM, first compound 0.0316 µM
[16] = second compound 3.16 µM, first compound 0.1 µM
[17] = second compound 10 µM, first compound 0.00316 µM
[18] = second compound 10 µM, first compound 0.01 µM
[19] = second compound 10 µM, first compound 0.0316 µM
[20] = second compound 10 µM, first compound 0.1 µM
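Also: spheroids exposed to agents for seven days.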
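For viability, T/C in this document: 100% = DMSO vehicle control wells.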

## CC[C@@]1(O)C(=O)OCc2c1cc1n(c2=O)Cc2cc3c(CN(C)C)c(O)ccc3nc2-1 + NC1CC1c1ccc(-c2cccc(O)c2)cc1
Second compound 0.1 µM
  IC50: 5.86 nM
Second compound 0.316 µM
  IC50: 5.85 nM
Second compound 1 µM
  IC50: 5.62 nM
Second compound 3.16 µM
  IC50: 6.11 nM
Second compound 10 µM
  IC50: 5.17 nM
Second compound 0.1 µM, first compound 0.000316 µM
  viability, T/C: 97.9%
Second compound 0.1 µM, first compound 0.001 µM
  viability, T/C: 88.2%
[1]
  viability, T/C: 67%
[2]
  viability, T/C: 34.9%
[3]
  viability, T/C: 16.6%
[4]
  viability, T/C: 7.12%
Second compound 0.316 µM, first compound 0.000316 µM
  viability, T/C: 95.5%
Second compound 0.316 µM, first compound 0.001 µM
  viability, T/C: 104%
[5]
  viability, T/C: 64.8%
[6]
  viability, T/C: 34.5%
[7]
  viability, T/C: 16.6%
[8]
  viability, T/C: 6.13%
Second compound 1 µM, first compound 0.000316 µM
  viability, T/C: 91.2%
Second compound 1 µM, first compound 0.001 µM
  viability, T/C: 95.1%
[9]
  viability, T/C: 68.4%
[10]
  viability, T/C: 30.3%
[11]
  viability, T/C: 13.3%
[12]
  viability, T/C: 6.38%
Second compound 3.16 µM, first compound 0.000316 µM
  viability, T/C: 103%
Second compound 3.16 µM, first compound 0.001 µM
  viability, T/C: 96.1%
[13]
  viability, T/C: 69.9%
[14]
  viability, T/C: 34.7%
[15]
  viability, T/C: 14.4%
[16]
  viability, T/C: 6.43%
Second compound 10 µM, first compound 0.000316 µM
  viability, T/C: 87.9%
Second compound 10 µM, first compound 0.001 µM
  viability, T/C: 79.8%
[17]
  viability, T/C: 59%
[18]
  viability, T/C: 35.6%
[19]
  viability, T/C: 20.7%
[20]
  viability, T/C: 5.8%

## COc1cc(C2c3cc4c(cc3C(OC3OC5COC(C)OC5C(O)C3O)C3COC(=O)C23)OCO4)cc(OC)c1O (stereo not given) + NC1CC1c1ccc(-c2cccc(O)c2)cc1
Second compound 0.1 µM
  IC50: 164 nM
Second compound 0.316 µM
  IC50: 116 nM
Second compound 1 µM
  IC50: 185 nM
Second compound 3.16 µM
  IC50: 316 nM
Second compound 10 µM
  IC50: 321 nM
Second compound 0.1 µM, first compound 0.00949 µM
  viability, T/C: 92.1%
Second compound 0.1 µM, first compound 0.03 µM
  viability, T/C: 76%
Second compound 0.1 µM, first compound 0.0949 µM
  viability, T/C: 56.4%
Second compound 0.1 µM, first compound 0.3 µM
  viability, T/C: 42.7%
Second compound 0.1 µM, first compound 0.949 µM
  viability, T/C: 30.3%
Second compound 0.1 µM, first compound 3 µM
  viability, T/C: 23.8%
Second compound 0.316 µM, first compound 0.00949 µM
  viability, T/C: 87.8%
Second compound 0.316 µM, first compound 0.03 µM
  viability, T/C: 75.6%
Second compound 0.316 µM, first compound 0.0949 µM
  viability, T/C: 52.9%
Second compound 0.316 µM, first compound 0.3 µM
  viability, T/C: 33.9%
Second compound 0.316 µM, first compound 0.949 µM
  viability, T/C: 31%
Second compound 0.316 µM, first compound 3 µM
  viability, T/C: 22.6%
Second compound 1 µM, first compound 0.00949 µM
  viability, T/C: 90.4%
Second compound 1 µM, first compound 0.03 µM
  viability, T/C: 79.6%
Second compound 1 µM, first compound 0.0949 µM
  viability, T/C: 53.6%
Second compound 1 µM, first compound 0.3 µM
  viability, T/C: 46.3%
Second compound 1 µM, first compound 0.949 µM
  viability, T/C: 29.9%
Second compound 1 µM, first compound 3 µM
  viability, T/C: 18.3%
Second compound 3.16 µM, first compound 0.00949 µM
  viability, T/C: 89.5%
Second compound 3.16 µM, first compound 0.03 µM
  viability, T/C: 72%
Second compound 3.16 µM, first compound 0.0949 µM
  viability, T/C: 63.6%
Second compound 3.16 µM, first compound 0.3 µM
  viability, T/C: 40.5%
Second compound 3.16 µM, first compound 0.949 µM
  viability, T/C: 54.4%
Second compound 3.16 µM, first compound 3 µM
  viability, T/C: 18.4%
Second compound 10 µM, first compound 0.00949 µM
  viability, T/C: 83.6%
Second compound 10 µM, first compound 0.03 µM
  viability, T/C: 77.8%
Second compound 10 µM, first compound 0.0949 µM
  viability, T/C: 59.9%
Second compound 10 µM, first compound 0.3 µM
  viability, T/C: 51.6%
Second compound 10 µM, first compound 0.949 µM
  viability, T/C: 39.5%
Second compound 10 µM, first compound 3 µM
  viability, T/C: 27.8%

## Nc1ncn(C2CC(O)C(CO)O2)c(=O)n1 (stereo not given) + NC1CC1c1ccc(-c2cccc(O)c2)cc1
Second compound 0.1 µM
  IC50: > 1000 nM
Second compound 0.316 µM
  IC50: > 1000 nM
Second compound 1 µM
  IC50: > 1000 nM
Second compound 3.16 µM
  IC50: > 1000 nM
Second compound 10 µM
  IC50: > 1000 nM
[1]
  viability, T/C: 78.6%
[2]
  viability, T/C: 103%
[3]
  viability, T/C: 76.2%
[4]
  viability, T/C: 75.2%
Second compound 0.1 µM, first compound 0.316 µM
  viability, T/C: 72.4%
Second compound 0.1 µM, first compound 1 µM
  viability, T/C: 77.8%
[5]
  viability, T/C: 103%
[6]
  viability, T/C: 101%
[7]
  viability, T/C: 77.5%
[8]
  viability, T/C: 69.5%
Second compound 0.316 µM, first compound 0.316 µM
  viability, T/C: 62.8%
Second compound 0.316 µM, first compound 1 µM
  viability, T/C: 73.5%
[9]
  viability, T/C: 94.4%
[10]
  viability, T/C: 85.3%
[11]
  viability, T/C: 97.4%
[12]
  viability, T/C: 75.2%
Second compound 1 µM, first compound 0.316 µM
  viability, T/C: 55.2%
Second compound 1 µM, first compound 1 µM
  viability, T/C: 72.4%
[13]
  viability, T/C: 108%
[14]
  viability, T/C: 102%
[15]
  viability, T/C: 89.4%
[16]
  viability, T/C: 54.9%
Second compound 3.16 µM, first compound 0.316 µM
  viability, T/C: 62.3%
Second compound 3.16 µM, first compound 1 µM
  viability, T/C: 69.1%
[17]
  viability, T/C: 98.8%
[18]
  viability, T/C: 116%
[19]
  viability, T/C: 90.7%
[20]
  viability, T/C: 77.4%
Second compound 10 µM, first compound 0.316 µM
  viability, T/C: 86%
Second compound 10 µM, first compound 1 µM
  viability, T/C: 66.9%
